Results on four compounds are retold here after ChEMBL document CHEMBL3046264, “Juvenile hormone activity of ethyl 4-(2-aryloxyhexyloxy)benzoates with precocious metamorphosis-inducing activity” (Biosci Biotechnol Biochem, 2007).

Active and inactive are the calls of the source. The rule behind the calls is not given here.

Test [1] deals with Bombyx mori. The experiment in a line: Induction of precocious metamorphosis in allatectomized fourth-instar larvae of Bombyx mori Shunei x Shougetsu assessed as juvenile hormone activity at 10 to 40 ug applied topically to dorsal abdomen of larvae. It counts as functional, organism-based.
In test [2] the test system is Bombyx mori. The experiment in a line: Induction of precocious metamorphosis in allatectomized fourth-instar larvae of Bombyx mori Shunei x Shougetsu assessed as juvenile hormone activity at 1 ug applied topically to dorsal abdomen of larvae. It counts as functional, organism-based.

Take `CCCCC(COc1ccc(C(=O)OCC)cc1)Oc1ccccc1` (stereo unspecified): the result with Bombyx mori [1] was Active. Moreover, the result in the test on Bombyx mori [2] was inactive.
As to `COC(C)(C)CCC[C@H](C)C/C=C/C(C)=C/C(=O)OC(C)C`, in the test with Bombyx mori [2], the outcome was Active.
Consider `CCOC(=O)c1ccc(OCC(CC)OC(=O)C(C)(C)C)cc1` (stereo unspecified), for which the outcome in the test on Bombyx mori [2] was Active.
`CCCCC(COc1ccc(C(=O)OCC)cc1)Oc1ccc(C)nc1` (stereo unspecified): the result in the test with Bombyx mori [1] was Active. Besides, the result in the test with Bombyx mori [2] was inactive.
